Laboratory results taken from US7507776B2, “Outdoor weatherable photopolymerizable coatings” (3M Innovative Properties Company, priority 2003, dated 2009).

Assay: 48 hr solubility of benzotriazole UV absorbers in solubilizing monomers
Conditions: not given
Experimental: The solubility of the benzotriazole 2-(2-hydroxy-3-alpha-cumyl-5-t-octylphenyl)-5-trifluoromethylbenzotriazole (CGL-139, experimentally available from Ciba Specialty Chemicals) in various solubilizing monomers was determined. Mixtures were made up using 5% increments of the benzotriazole. The benzotriazole and solubilizing monomer to be tested were mixed with gentle heating to 70° C. in a water bath until dissolved, then allowed to stand for 48 hours at room temperature. After 48 hours, each mixture was inspected for benzotriazole precipitation. Solubility was determined to within 5% by recording the highest concentration tested for which there was no precipitation and the lowest concentration for which precipitation occurred. […] Where reported in the literature, the Tg of a polymer made entirely of the tested solubilizing monomer is also given.
Using the method of Example 1, the solubility of a variety of benzotriazoles in isobornyl acrylate was determined. The formula for each of the tested benzotriazoles is set out above. These benzotriazoles can also be represented using the general structure 2-(2-hydroxy-3-R2-5-R3-phenyl)-5-R1-benzotriazole. For CGL-139, R1=trifluoromethyl, R2=alpha-cumyl, and R3=t-octyl. For TINUVIN 928, R1=H, R2=alpha-cumyl, and R3=t-octyl. For Tinuvin 328, R1=H, R2=t-amyl, and R3=t-amyl. For TINUVIN 327, R1=chloro, R2=t-butyl, and R3=t-butyl. For TINUVIN 326, R1=chloro, R2=t-butyl, and R3=methyl. For both TINUVIN 234 and TINUVIN 900, R1=H, R2=alpha-cumyl, and R3=alpha-cumyl.
With `CC(C)(C)CC(C)(C)c1cc(-n2nc3ccc(C(F)(F)F)cc3n2)c(O)c(C(C)(C)c2ccccc2)c1` [CGL-139, 2-(2-hydroxy-3-alpha-cumyl-5-t-octylphenyl)-5-trifluoromethylbenzotriazole] the “Benzotriazole 48 hr Solubility, wt. %” value was 25-30% wt. %. For `Cc1cc(-n2nc3ccc(Cl)cc3n2)c(O)c(C(C)(C)C)c1` [TINUVIN 326, 5-chloro-2-(2-hydroxy-3-tert-butyl-5-methylphenyl)-2H-benzotriazole], the “Benzotriazole 48 hr Solubility, wt. %” value was 5-10% wt. %. In the case of `CC(C)(C)CC(C)(C)c1cc(-n2nc3ccccc3n2)c(O)c(C(C)(C)c2ccccc2)c1` [TINUVIN 928, 2-(2-hydroxy-3-alpha-cumyl-5-tert-octylphenyl)-2H-benzotriazole], the “Benzotriazole 48 hr Solubility, wt. %” value is reported as 30-35% wt. %.

Same assay, conditions: in isobornyl acrylate; method of Example 1, 48 hours at room temperature
With `CC(C)(C)c1cc(-n2nc3ccc(Cl)cc3n2)c(O)c(C(C)(C)C)c1` [TINUVIN 327, 5-chloro-2-(2-hydroxy-3,5-di-tert-butylphenyl)-2H-benzotriazole] the “Benzotriazole 48 hr Solubility, wt. %” value was 5-10% wt. %. With `CCC(C)(C)c1cc(-n2nc3ccccc3n2)c(O)c(C(C)(C)CC)c1` [TINUVIN 328, 2-(2-hydroxy-3,5-di-tert-amylphenyl)-2H-benzotriazole] the “Benzotriazole 48 hr Solubility, wt. %” value was 20-25% wt. %. In the case of `CC(C)(c1ccccc1)c1cc(-n2nc3ccccc3n2)c(O)c(C(C)(C)c2ccccc2)c1` [TINUVIN 900, 2-(2-hydroxy-3,5-di-alpha-cumylphenyl)-2H-benzotriazole], the “Benzotriazole 48 hr Solubility, wt. %” value is reported as 0-5% wt. %.
